Species: Rattus norvegicus
Assay: Open TG-GATES - Regimen: Daily Repeat
Type: toxicity, organism-based, Sprague-Dawley
Parameters: regimen Daily Repeat, gender Male, age 6 weeks
Details: in vivo, po, 100 mg/kg, route gavage, dose level Low; for APTT / Bas / Eos / Fbg / Hb / Ht / Lym / MCH / MCHC / MCV / Mono / Neu / PT / Plat / RBC / Ret / WBC: tissue Blood
[1] = 72 h, tissue Kidney, time 3 day
[2] = 72 h, tissue Plasma, time 3 day

`C[C@H]1O[C@H](O[C@H]2[C@H](O)[C@@H](O)[C@@H](O[C@H]3[C@H](O)[C@@H](O)C(O)O[C@@H]3CO)O[C@@H]2CO)[C@H](O)[C@@H](O)[C@@H]1N[C@H]1C=C(CO)[C@@H](O)[C@H](O)[C@H]1O` (stereo partly specified) [ACARBOSE] showed a TERMINAL_BW (72 h, time 3 day) of 233.2 g, an APTT (72 h, time 3 day) of 17.1 s and a Bas (72 h, time 3 day) of 0%. It also gave an Eos (72 h, time 3 day) of 1%, a Fbg (72 h, time 3 day) of 279.2 mg/dL and a Hb (72 h, time 3 day) of 13.2 g/dL. The Ht (72 h, time 3 day) was 39.4%, the Lym (72 h, time 3 day) was 79.4% and the MCH (72 h, time 3 day) was 20.4 pg. It also gave an MCHC (72 h, time 3 day) of 33.5%, an MCV (72 h, time 3 day) of 61 fL and a Mono (72 h, time 3 day) of 2.6%. The Neu (72 h, time 3 day) was 15.4%, the PT (72 h, time 3 day) was 13.3 s and the Plat (72 h, time 3 day) was 126 x10_4/uL. The RBC (72 h, time 3 day) was 646.8 x10_4/ul, the Ret (72 h, time 3 day) was 6.7% and the WBC (72 h, time 3 day) was 97.6 x10_2/uL. For the same molecule, the KIDNEY_L [1] was 1 g, the KIDNEY_R [1] was 1 g and the KIDNEY_TOTAL [1] was 2.1 g. It also gave an LIVER (72 h, tissue Liver, time 3 day) of 11.3 g, an A/G [2] of 0.9 and an ALP [2] of 1544.2 IU/L. The ALT [2] was 40.2 IU/L, the AST [2] was 70.2 IU/L and the BUN [2] was 13.8 mg/dL. For the same molecule, the CRE [2] was 0.2 mg/dL, the Ca [2] was 10.7 mg/dL and the Cl [2] was 103.8 meq/L. The DBIL [2] was 0.01 mg/dL, the GLC [2] was 182 mg/dL and the IP [2] was 7.5 mg/dL. It also gave a K [2] of 3.9 meq/L, an LDH [2] of 84.2 IU/L and a Na [2] of 140.6 meq/L. The PL [2] was 142.4 mg/dL, the RALB [2] was 2.6 g/dL and the TBIL [2] was 0.056 mg/dL. It also gave a TC [2] of 72.2 mg/dL, a TG [2] of 101.8 mg/dL and a TP [2] of 5.6 g/dL. It also gave a gamma-GTP [2] of 1 IU/L, a TERMINAL_BW ([…], time 7 day) of 267.4 g and a TERMINAL_BW ([…], time 14 day) of 335.4 g. For the same molecule, the TERMINAL_BW ([…], time 28 day) was 407.8 g, the APTT ([…], time 7 day) was 17.6 s and the Bas ([…], time 7 day) was 0%. It also gave an Eos ([…], time 7 day) of 1%, a Fbg ([…], time 7 day) of 291.8 mg/dL and a Hb ([…], time 7 day) of 13.8 g/dL. For the same molecule, the Ht ([…], time 7 day) was 40.9%, the Lym ([…], time 7 day) was 73.6% and the MCH ([…], time 7 day) was 21.2 pg. For the same molecule, the MCHC ([…], time 7 day) was 33.6%, the MCV ([…], time 7 day) was 63 fL and the Mono ([…], time 7 day) was 3%. It also gave a Neu ([…], time 7 day) of 21.6%, a PT ([…], time 7 day) of 12.9 s and a Plat ([…], time 7 day) of 130.6 x10_4/uL. For the same molecule, the RBC ([…], time 7 day) was 649.8 x10_4/ul, the Ret ([…], time 7 day) was 6.1% and the WBC ([…], time 7 day) was 81.1 x10_2/uL. The APTT ([…], time 14 day) was 17.6 s, the Bas ([…], time 14 day) was 0% and the Eos ([…], time 14 day) was 1.4%. For the same molecule, the Fbg ([…], time 14 day) was 290.2 mg/dL, the Hb ([…], time 14 day) was 14.9 g/dL and the Ht ([…], time 14 day) was 44.1%. For the same molecule, the Lym ([…], time 14 day) was 80.6%, the MCH ([…], time 14 day) was 20.7 pg and the MCHC ([…], time 14 day) was 33.7%. It also gave an MCV ([…], time 14 day) of 61.4 fL, a Mono ([…], time 14 day) of 2.6% and a Neu ([…], time 14 day) of 15%. The PT ([…], time 14 day) was 13.2 s, the Plat ([…], time 14 day) was 126.6 x10_4/uL and the RBC ([…], time 14 day) was 719.2 x10_4/ul. For the same molecule, the Ret ([…], time 14 day) was 4.4%, the WBC ([…], time 14 day) was 98.7 x10_2/uL and the APTT ([…], time 28 day) was 18.7 s. It also gave a Bas ([…], time 28 day) of 0%, an Eos ([…], time 28 day) of 1% and a Fbg ([…], time 28 day) of 301 mg/dL. For the same molecule, the Hb ([…], time 28 day) was 15.3 g/dL and the Ht ([…], time 28 day) was 44%.
